# Measurements from PMC4685510, “A Cell Biologist’s Field Guide to Aurora Kinase Inhibitors” (Frontiers in Oncology, 2015).
# Where two headings read alike, the source gives them in different places.
# Assays:
# Assay in all cases: biochemical
# Type in all cases: biochemical
# [1] = molecular target: 363 human kinases (including Aurora A/B/C) (Homo sapiens, UniProt P30291); conditions: WEE1; for remaining activity at 0.5 µM / remaining activity at 0.1 µM: read-out: % Enzyme Activity (relative to DMSO controls); for remaining activity at 0.1 µM: 100 nM
# Text: (§1) However, the Aurora A/B selectivity ratios derived from our in vitro and in vivo data can be compared to prioritize inhibitors.
# [2] = molecular target: T1, 363 human kinases (including Aurora A/B/C) (Homo sapiens, UniProt Q9UPZ9); conditions: LCK2/ICK; for remaining activity at 0.5 µM / remaining activity at 0.1 µM: read-out: % Enzyme Activity (relative to DMSO controls); for remaining activity at 0.1 µM: 100 nM
# T1 sequence (Q9UPZ9 1-632): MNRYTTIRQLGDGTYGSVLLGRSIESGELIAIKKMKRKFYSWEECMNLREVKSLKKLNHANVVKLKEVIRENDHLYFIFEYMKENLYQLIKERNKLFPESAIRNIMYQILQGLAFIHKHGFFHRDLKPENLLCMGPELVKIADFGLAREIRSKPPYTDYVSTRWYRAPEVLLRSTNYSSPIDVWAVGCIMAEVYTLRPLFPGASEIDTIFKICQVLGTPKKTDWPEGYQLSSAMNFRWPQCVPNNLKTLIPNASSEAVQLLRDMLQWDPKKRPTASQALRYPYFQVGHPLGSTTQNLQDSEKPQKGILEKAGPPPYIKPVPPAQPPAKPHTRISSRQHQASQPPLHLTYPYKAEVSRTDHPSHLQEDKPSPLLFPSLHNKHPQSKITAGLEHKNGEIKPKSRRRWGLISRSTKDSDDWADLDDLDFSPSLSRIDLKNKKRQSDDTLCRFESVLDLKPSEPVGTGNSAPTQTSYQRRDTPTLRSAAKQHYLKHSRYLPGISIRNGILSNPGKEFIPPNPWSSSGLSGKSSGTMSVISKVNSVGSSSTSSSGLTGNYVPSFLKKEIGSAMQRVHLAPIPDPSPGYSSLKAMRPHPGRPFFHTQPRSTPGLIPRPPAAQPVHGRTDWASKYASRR
# Text: as §1
# [3] = molecular target: 363 human kinases (including Aurora A/B/C) (Homo sapiens, UniProt Q8N5S9); conditions: CAMKK1, [ATP] 5 µM; for remaining activity at 0.5 µM / remaining activity at 0.1 µM: read-out: % Enzyme Activity (relative to DMSO controls); for remaining activity at 0.1 µM: 100 nM
# Text: as §1
# [4] = molecular target: 363 human kinases (including Aurora A/B/C) (Homo sapiens, UniProt O75460); conditions: ERN1/IRE1, [ATP] 30 µM; for remaining activity at 0.5 µM / remaining activity at 0.1 µM: read-out: % Enzyme Activity (relative to DMSO controls); for remaining activity at 0.1 µM: 100 nM
# Text: as §1
# [5] = molecular target: 363 human kinases (including Aurora A/B/C) (Homo sapiens, UniProt Q13153); conditions: PAK1; for remaining activity at 0.5 µM / remaining activity at 0.1 µM: read-out: % Enzyme Activity (relative to DMSO controls); for remaining activity at 0.1 µM: 100 nM
# Text: as §1
# [6] = molecular target: 363 human kinases (including Aurora A/B/C) (Homo sapiens, UniProt P11802); conditions: for % Enzyme Activity (relative to DMSO controls) / remaining activity at 0.5 µM: 500 nM; for remaining activity at 0.5 µM / remaining activity at 0.1 µM: read-out: % Enzyme Activity (relative to DMSO controls); for remaining activity at 0.1 µM: 100 nM
# Text: as §1
# [7] = molecular target: 363 human kinases (including Aurora A/B/C) (Homo sapiens, UniProt P22455); conditions: FGFR4, [ATP] 100 µM; for remaining activity at 0.5 µM / remaining activity at 0.1 µM: read-out: % Enzyme Activity (relative to DMSO controls); for remaining activity at 0.1 µM: 100 nM
# Text: as §1
# [8] = molecular target: 363 human kinases (including Aurora A/B/C) (Homo sapiens, UniProt Q9H422); conditions: HIPK3; for remaining activity at 0.5 µM / remaining activity at 0.1 µM: read-out: % Enzyme Activity (relative to DMSO controls); for remaining activity at 0.1 µM: 100 nM
# Text: as §1
# [9] = molecular target: 363 human kinases (including Aurora A/B/C) (Homo sapiens, UniProt P50750); conditions: [ATP] 10 µM; for % Enzyme Activity (relative to DMSO controls) / remaining activity at 0.5 µM: 500 nM; for remaining activity at 0.5 µM / remaining activity at 0.1 µM: read-out: % Enzyme Activity (relative to DMSO controls); for remaining activity at 0.1 µM: 100 nM
# Text: as §1
# [10] = molecular target: T2, 363 human kinases (including Aurora A/B/C) (Homo sapiens, UniProt P42681); conditions: TXK; for remaining activity at 0.5 µM / remaining activity at 0.1 µM: read-out: % Enzyme Activity (relative to DMSO controls); for remaining activity at 0.1 µM: 100 nM
# T2 sequence (P42681 1-527): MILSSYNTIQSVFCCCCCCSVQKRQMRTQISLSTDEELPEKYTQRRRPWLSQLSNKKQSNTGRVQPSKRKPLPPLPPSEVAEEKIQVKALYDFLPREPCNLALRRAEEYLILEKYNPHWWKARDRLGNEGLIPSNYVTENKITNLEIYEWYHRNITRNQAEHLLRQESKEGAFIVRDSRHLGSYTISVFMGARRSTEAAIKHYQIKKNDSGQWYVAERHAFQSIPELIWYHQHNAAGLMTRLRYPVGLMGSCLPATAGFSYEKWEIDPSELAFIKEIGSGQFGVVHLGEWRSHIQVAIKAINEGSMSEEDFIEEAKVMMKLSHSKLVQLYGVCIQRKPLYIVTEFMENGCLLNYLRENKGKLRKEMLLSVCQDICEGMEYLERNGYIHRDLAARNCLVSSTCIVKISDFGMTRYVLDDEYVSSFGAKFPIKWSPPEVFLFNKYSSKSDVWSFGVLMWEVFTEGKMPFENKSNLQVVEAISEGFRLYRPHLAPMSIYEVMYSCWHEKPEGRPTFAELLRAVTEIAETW
# Text: as §1
# [11] = molecular target: 363 human kinases (including Aurora A/B/C) (Homo sapiens, UniProt Q13882); conditions: BRK, [ATP] 100 µM; for remaining activity at 0.5 µM / remaining activity at 0.1 µM: read-out: % Enzyme Activity (relative to DMSO controls); for remaining activity at 0.1 µM: 100 nM
# Text: as §1
# [12] = molecular target: 363 human kinases (including Aurora A/B/C) (Homo sapiens, UniProt Q16288); conditions: TRKC; for remaining activity at 0.1 µM: 100 nM
# Text: as §1
# [13] = molecular target: 363 human kinases (including Aurora A/B/C) (Homo sapiens, UniProt Q96NX5); conditions: CAMK1g, [ATP] 30 µM; for remaining activity at 0.5 µM / remaining activity at 0.1 µM: read-out: % Enzyme Activity (relative to DMSO controls); for remaining activity at 0.1 µM: 100 nM
# Text: as §1
# [14] = read-out: % Enzyme Activity (relative to DMSO controls)
# 363 human kinases (including Aurora A/B/C) (Homo sapiens, UniProt P22455), sequence (P22455 22-802): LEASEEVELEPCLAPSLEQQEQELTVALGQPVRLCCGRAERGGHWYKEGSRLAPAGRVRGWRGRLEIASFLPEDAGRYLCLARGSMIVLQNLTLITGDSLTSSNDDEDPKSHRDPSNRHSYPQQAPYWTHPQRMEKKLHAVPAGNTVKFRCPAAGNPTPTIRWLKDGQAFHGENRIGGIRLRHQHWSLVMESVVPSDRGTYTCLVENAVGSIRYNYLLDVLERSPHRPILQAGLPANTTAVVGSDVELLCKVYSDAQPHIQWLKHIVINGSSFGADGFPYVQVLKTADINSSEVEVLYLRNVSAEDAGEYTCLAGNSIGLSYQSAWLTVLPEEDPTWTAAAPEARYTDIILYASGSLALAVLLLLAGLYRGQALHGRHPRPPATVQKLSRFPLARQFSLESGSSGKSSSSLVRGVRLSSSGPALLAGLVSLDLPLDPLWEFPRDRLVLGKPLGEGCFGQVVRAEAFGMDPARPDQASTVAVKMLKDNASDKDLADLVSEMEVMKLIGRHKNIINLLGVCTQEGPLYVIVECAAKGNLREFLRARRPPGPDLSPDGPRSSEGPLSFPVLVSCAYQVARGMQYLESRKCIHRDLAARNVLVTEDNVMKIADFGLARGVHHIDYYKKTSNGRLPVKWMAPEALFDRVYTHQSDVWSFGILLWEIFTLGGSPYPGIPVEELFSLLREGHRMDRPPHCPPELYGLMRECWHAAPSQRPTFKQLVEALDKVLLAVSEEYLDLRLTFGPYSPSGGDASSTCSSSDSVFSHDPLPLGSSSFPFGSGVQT
# 363 human kinases (including Aurora A/B/C) (Homo sapiens, UniProt Q13153), sequence (Q13153 whole entry): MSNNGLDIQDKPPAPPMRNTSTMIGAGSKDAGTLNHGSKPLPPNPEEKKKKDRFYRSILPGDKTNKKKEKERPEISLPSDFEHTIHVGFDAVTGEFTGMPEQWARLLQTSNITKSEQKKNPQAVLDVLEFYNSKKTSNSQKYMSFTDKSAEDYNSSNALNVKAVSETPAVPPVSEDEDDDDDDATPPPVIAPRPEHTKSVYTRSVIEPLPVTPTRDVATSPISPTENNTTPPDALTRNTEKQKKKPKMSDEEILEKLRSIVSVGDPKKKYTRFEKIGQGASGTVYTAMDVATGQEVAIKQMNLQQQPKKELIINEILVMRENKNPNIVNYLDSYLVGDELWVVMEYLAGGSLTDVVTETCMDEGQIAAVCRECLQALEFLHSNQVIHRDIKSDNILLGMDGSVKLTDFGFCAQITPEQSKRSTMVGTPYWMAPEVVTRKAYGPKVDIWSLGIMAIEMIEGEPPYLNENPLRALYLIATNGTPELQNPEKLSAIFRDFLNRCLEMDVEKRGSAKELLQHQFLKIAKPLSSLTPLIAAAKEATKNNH
# 363 human kinases (including Aurora A/B/C) (Homo sapiens, UniProt Q8N5S9), sequence (Q8N5S9 whole entry): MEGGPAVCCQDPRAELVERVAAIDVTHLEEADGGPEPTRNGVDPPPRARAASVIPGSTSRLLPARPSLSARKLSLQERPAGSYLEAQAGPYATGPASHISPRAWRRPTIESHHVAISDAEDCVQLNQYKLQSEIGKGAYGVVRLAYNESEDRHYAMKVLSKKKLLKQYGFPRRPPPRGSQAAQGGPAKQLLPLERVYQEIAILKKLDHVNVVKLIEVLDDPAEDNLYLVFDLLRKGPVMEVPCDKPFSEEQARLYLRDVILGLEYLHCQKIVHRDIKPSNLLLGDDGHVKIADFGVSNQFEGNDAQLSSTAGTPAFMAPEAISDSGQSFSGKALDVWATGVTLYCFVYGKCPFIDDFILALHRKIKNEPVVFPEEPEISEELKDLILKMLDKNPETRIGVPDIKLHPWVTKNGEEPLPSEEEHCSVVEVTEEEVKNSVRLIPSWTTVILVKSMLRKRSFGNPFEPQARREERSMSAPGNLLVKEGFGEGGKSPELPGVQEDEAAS
# 363 human kinases (including Aurora A/B/C) (Homo sapiens, UniProt Q96NX5), sequence (Q96NX5 whole entry): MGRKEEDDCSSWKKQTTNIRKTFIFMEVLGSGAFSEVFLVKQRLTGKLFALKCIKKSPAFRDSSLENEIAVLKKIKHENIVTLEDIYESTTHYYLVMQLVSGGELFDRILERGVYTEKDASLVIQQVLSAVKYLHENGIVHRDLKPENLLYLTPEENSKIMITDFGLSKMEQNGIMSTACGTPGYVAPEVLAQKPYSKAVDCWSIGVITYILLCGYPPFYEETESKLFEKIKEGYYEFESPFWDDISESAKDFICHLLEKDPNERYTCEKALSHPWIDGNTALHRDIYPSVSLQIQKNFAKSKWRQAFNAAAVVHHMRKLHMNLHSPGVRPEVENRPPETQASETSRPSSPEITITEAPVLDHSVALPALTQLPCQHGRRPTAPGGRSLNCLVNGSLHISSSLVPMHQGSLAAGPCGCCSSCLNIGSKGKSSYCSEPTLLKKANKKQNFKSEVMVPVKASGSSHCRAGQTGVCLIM
# 363 human kinases (including Aurora A/B/C) (Homo sapiens, UniProt O75460), sequence (O75460 19-977): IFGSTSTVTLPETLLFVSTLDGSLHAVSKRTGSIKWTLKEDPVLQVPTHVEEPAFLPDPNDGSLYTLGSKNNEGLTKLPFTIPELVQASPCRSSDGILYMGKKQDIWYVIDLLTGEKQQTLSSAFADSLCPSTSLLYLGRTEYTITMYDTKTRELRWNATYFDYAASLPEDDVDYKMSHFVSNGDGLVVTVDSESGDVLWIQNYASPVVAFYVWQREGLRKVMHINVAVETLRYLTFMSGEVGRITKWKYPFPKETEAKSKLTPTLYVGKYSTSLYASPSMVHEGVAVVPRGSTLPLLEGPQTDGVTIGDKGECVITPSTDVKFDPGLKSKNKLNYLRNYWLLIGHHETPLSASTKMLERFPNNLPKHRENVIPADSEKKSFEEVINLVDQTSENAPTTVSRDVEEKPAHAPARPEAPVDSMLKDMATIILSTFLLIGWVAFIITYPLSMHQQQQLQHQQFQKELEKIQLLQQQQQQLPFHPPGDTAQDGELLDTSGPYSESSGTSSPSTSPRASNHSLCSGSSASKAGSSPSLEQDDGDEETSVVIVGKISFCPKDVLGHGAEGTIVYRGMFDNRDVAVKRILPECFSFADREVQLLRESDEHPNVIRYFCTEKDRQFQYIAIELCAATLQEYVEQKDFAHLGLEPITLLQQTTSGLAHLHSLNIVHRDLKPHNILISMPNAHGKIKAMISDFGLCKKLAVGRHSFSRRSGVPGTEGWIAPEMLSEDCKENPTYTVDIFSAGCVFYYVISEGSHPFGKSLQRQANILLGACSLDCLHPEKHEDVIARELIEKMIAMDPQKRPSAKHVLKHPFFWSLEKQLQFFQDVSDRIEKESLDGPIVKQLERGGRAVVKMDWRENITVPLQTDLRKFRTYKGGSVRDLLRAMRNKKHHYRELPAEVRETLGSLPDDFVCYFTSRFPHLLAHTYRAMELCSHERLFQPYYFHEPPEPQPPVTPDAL
# 363 human kinases (including Aurora A/B/C) (Homo sapiens, UniProt Q16288), sequence (Q16288 32-839): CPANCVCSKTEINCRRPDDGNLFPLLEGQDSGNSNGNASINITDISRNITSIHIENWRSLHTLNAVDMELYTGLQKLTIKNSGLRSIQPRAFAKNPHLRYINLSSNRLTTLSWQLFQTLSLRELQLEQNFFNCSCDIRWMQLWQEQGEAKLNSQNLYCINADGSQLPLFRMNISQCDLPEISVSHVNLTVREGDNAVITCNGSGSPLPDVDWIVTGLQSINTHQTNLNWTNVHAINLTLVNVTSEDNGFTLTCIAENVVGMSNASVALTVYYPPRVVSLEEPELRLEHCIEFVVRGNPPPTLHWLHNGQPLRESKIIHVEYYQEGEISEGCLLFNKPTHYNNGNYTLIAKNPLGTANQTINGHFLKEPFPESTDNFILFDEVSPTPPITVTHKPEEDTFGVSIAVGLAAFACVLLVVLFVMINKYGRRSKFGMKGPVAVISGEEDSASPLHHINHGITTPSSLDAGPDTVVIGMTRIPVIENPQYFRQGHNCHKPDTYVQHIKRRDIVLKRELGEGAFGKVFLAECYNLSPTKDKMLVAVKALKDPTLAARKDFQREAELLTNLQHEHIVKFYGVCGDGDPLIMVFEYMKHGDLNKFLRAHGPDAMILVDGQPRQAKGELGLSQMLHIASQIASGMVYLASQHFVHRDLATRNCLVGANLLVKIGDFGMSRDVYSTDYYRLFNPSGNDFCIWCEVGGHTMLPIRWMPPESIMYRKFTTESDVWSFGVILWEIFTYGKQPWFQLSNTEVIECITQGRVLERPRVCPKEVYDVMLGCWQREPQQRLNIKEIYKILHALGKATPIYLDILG
# 363 human kinases (including Aurora A/B/C) (Homo sapiens, UniProt P11802), sequence (P11802 whole entry): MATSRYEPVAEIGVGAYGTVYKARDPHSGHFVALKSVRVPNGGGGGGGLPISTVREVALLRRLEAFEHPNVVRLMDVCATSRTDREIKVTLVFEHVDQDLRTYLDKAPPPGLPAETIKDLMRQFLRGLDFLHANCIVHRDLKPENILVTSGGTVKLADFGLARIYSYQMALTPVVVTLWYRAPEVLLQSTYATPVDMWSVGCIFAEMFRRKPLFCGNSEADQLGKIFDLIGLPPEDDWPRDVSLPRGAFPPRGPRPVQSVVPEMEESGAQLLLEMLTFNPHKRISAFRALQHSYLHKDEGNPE
# 363 human kinases (including Aurora A/B/C) (Homo sapiens, UniProt P50750), sequence (P50750 whole entry): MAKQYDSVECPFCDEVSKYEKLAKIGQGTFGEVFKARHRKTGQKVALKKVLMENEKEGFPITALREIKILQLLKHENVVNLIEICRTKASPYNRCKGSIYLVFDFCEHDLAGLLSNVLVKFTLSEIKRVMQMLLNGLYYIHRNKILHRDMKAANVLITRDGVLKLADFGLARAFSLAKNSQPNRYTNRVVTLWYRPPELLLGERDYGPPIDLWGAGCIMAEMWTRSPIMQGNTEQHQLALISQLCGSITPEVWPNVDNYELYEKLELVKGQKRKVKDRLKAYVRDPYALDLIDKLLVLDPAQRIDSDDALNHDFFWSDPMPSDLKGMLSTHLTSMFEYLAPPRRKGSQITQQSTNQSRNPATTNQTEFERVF
SMILES,remaining activity at 0.5 µM ([1]; 500 nM) [%],remaining activity at 0.5 µM ([2]; 500 nM) [%],remaining activity at 0.5 µM ([3]; 500 nM) [%],remaining activity at 0.5 µM ([4]; 500 nM) [%],remaining activity at 0.5 µM ([5]; 500 nM) [%],"remaining activity at 0.5 µM ([6]; CDK4/cyclin D1, [ATP] 30 µM) [%]","remaining activity at 0.5 µM ([6]; CDK4/cyclin D3, [ATP] 15 µM) [%]",remaining activity at 0.5 µM ([7]; 500 nM) [%],remaining activity at 0.5 µM ([8]; 500 nM) [%],remaining activity at 0.5 µM ([9]; CDK9/cyclin K) [%],remaining activity at 0.5 µM ([9]; CDK9/cyclin T1) [%],remaining activity at 0.5 µM ([10]; 500 nM) [%],remaining activity at 0.5 µM ([11]; 500 nM) [%],remaining activity at 0.5 µM ([13]; 500 nM) [%],remaining activity at 0.1 µM [1] [%],remaining activity at 0.1 µM [2] [%],remaining activity at 0.1 µM [3] [%],remaining activity at 0.1 µM [4] [%],remaining activity at 0.1 µM [5] [%],"remaining activity at 0.1 µM ([6]; CDK4/cyclin D1, [ATP] 30 µM) [%]",further results
O=C(c1cccc(Cl)c1F)N1CCN(Cc2cccc(Nc3nccs3)n2)CC1 [MK-8745],105,93,106,89.3,87.5,97.2,93.1,118,105,109,198,80.3,29,91.9,–,–,–,–,–,–,"% Enzyme Activity (relative to DMSO controls) ([1]; 500 nM): 99.94%; % Enzyme Activity (relative to DMSO controls) ([2]; 500 nM): 91.96%; % Enzyme Activity (relative to DMSO controls) ([3]; 500 nM): 105.68%; % Enzyme Activity (relative to DMSO controls) ([4]; 500 nM): 88.65%; % Enzyme Activity (relative to DMSO controls) ([5]; 500 nM): 85.62%; % Enzyme Activity (relative to DMSO controls) ([6]; CDK4/cyclin D1, [ATP] 30 µM): 96.49%; % Enzyme Activity (relative to DMSO controls) ([6]; CDK4/cyclin D3, [ATP] 15 µM): 93.01%; % Enzyme Activity (relative to DMSO controls) ([7]; 500 nM): 106.52%; % Enzyme Activity (relative to DMSO controls) ([8]; 500 nM): 105.35%; % Enzyme Activity (relative to DMSO controls) ([9]; CDK9/cyclin K): 108.88%; % Enzyme Activity (relative to DMSO controls) ([9]; CDK9/cyclin T1): 190.89%; % Enzyme Activity (relative to DMSO controls) ([10]; 500 nM): 80.24%; % Enzyme Activity (relative to DMSO controls) ([11]; 500 nM): 29.01%; % Enzyme Activity (relative to DMSO controls) ([12]; 500 nM): 3.01%; remaining activity at 0.5 µM ([12]; 500 nM, read-out: % Enzyme Activity (relative to DMSO controls)): 3.12%; % Enzyme Activity (relative to DMSO controls) ([13]; 500 nM): 91.44%"
CCn1cc(-c2ccnc3[nH]c(-c4cccc(CN(C)C)c4)cc23)c(-c2ccc(NC(=O)N(C)C)cc2)n1 [GSK1070916],–,–,–,–,–,–,–,–,–,–,–,–,–,–,97,97.6,110,95.9,81.9,97.5,"remaining activity at 0.1 µM ([6]; CDK4/cyclin D3, [ATP] 15 µM): 95.6%; remaining activity at 0.1 µM [7]: 125%; remaining activity at 0.1 µM [8]: 106%; remaining activity at 0.1 µM ([9]; CDK9/cyclin K): 102%; remaining activity at 0.1 µM ([9]; CDK9/cyclin T1): 91.5%; remaining activity at 0.1 µM [10]: 86.3%; remaining activity at 0.1 µM [11]: 76.6%; remaining activity at 0.1 µM [12, 14]: 78.6%; remaining activity at 0.1 µM [13]: 96.3%"
O=C(O)[C@]1(Cc2cccc(Nc3nccs3)n2)CC[C@@H](Oc2cccc(Cl)c2F)CC1 [MK-5108],93.4,92.3,104,88.8,81.2,96.1,98.8,126,70,106,115,10.5,3.11,93.7,106,99,108,106,93.7,96.4,"remaining activity at 0.1 µM ([6]; CDK4/cyclin D3, [ATP] 15 µM): 99%; remaining activity at 0.1 µM [7]: 91.7%; remaining activity at 0.1 µM [8]: 97%; remaining activity at 0.1 µM ([9]; CDK9/cyclin K): 94%; remaining activity at 0.1 µM ([9]; CDK9/cyclin T1): 124%; remaining activity at 0.1 µM [10]: 35.6%; remaining activity at 0.1 µM [11]: 20.2%; remaining activity at 0.1 µM [12, 14]: 0.99%; remaining activity at 0.1 µM [13]: 100%"
